Data: patent publication US7531569B2, “Process for preparing (3-oxo-2,3-dihydro-1H-isoindol-1-yl) acetylguanidine derivatives” (sanofi-aventis Deutschland GmbH, priority 2003, dated 2009)

How the values were obtained:
[1] = Stated solid-state and physicochemical properties of the salt (no method described); conditions: qualitative statement, no conditions given
[2] = target: T1, human NHE-1 (Homo sapiens, UniProt P19634); test: FLIPR assay of pHi recovery in transfected LAP-1 cell lines expressing human NHE-1; assay type: cell-based; conditions: transfected cells expressing human NHE-1, read-out: NHE1 inhibition IC50
T1 construct: expressed in transfected cells; host or cells: LAP-1 (parental line without endogenous NHE activity), G418 selection
T1 sequence (P19634 whole entry): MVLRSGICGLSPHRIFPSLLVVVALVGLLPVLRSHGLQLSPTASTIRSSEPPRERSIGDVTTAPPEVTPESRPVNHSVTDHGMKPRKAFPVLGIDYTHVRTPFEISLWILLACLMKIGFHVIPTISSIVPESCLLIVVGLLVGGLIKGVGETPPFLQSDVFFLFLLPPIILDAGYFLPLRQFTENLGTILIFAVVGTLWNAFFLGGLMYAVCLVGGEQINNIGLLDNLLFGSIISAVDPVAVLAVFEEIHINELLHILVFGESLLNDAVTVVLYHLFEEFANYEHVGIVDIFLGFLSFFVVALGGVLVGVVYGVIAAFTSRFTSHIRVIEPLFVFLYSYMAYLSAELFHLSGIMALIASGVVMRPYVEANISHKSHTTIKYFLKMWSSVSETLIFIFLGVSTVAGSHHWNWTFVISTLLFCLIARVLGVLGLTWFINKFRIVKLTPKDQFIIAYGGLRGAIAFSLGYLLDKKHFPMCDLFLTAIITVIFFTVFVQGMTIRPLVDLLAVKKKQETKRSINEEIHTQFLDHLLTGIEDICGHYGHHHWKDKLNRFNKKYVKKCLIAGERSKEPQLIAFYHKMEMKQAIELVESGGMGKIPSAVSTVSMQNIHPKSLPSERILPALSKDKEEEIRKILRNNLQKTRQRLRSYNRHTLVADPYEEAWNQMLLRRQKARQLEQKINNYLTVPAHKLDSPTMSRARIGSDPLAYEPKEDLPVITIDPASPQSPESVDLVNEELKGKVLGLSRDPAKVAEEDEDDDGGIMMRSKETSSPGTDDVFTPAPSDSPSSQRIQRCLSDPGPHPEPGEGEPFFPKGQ
Protocol: The inhibitory concentration IC50 for NHE-1 inhibition was determined as follows:
The NHE-1 inhibition IC50 was determined in an FLIPR assay by measurement of the recovery in pHi in transfected cell lines which express human NHE-1.
The assay was carried out in an FLIPR (fluorescent imaging plate reader) with black-walled 96-well microtiter plates having clear bases.
The growth medium for the transfected cells (Iscove+10% fetal calf serum) additionally contained G418 as a selection antibiotic in order to ensure the presence of the transfected sequences.
The actual assay started with the removal of the growth medium and addition of 100 μl of loading buffer per well (5 μM BCECF-AM [2′,7′-bis(carboxyethyl)-5- (and -6-)carboxyfluorescein, acetoxymethyl ester] in 20 mM NH4Cl, 115 mM choline chloride, 1 mM MgCl2, 1 mM CaCl2, 5 mM KCl, 20 mM HEPES, 5 mM glucose; pH 7.4 [adjusted with KOH]). The cells were then incubated at 37° C. for 20 minutes. This incubation led to loading of the cells with the fluorescent dye whose fluorescence intensity depends on pHi, and with NH4Cl which makes the cells slightly alkaline.
The nonfluorescent dye precursor BCECF-AM is, as the ester, membrane-permeable. Inside the cell, esterases release the actual BCECF dye which is membrane-impermeable. […]

SMILES | hygroscopicity [1] | solubility [1] | tendency to racemization [1] | IC50 [2] [nM]
NC(N)=NC(=O)C[C@H]1c2cc(C(F)(F)F)ccc2C(=O)N1CC(F)(F)F.O=C(O)/C=C/C(=O)O [(S)-N-{2-[3-Oxo-2-(2,2,2-trifluoroethyl)-6-trifluoromethyl-2,3-dihydro-1H-isoindol-1-yl]-acetyl}guanidine hydrogenfumarate hydrate] | particularly low hygroscopicity | good solubility | low tendency to racemization | 
NC(N)=NC(=O)C[C@H]1c2cc(C(F)(F)F)ccc2C(=O)N1CC(F)(F)F [(S)-N-{2-[3-Oxo-2-(2,2,2-trifluoroethyl)-6-trifluoromethyl-2,3-dihydro-1H-isoindol-1-yl]-acetyl}guanidine] |  |  |  | 0.3
